Test results published in patent publication US8809586B2, “Modafinil compositions” (priority 2004, dated 2014).

Assay: Solubility measured from an isopropyl acetate slurry, by HPLC
Conditions: solid from solubility samples dried under nitrogen, characterized by PXRD and thermal microscopy

SMILES | Form conversion during solubility procedure
NC(=O)C[S@@+]([O-])C(c1ccccc1)c1ccccc1 [R-(−)-modafinil Form IV, R-(−)-2-[(Diphenylmethyl)sulfinyl]acetamide] | Form conversion was not observed
NC(=O)C[S@@+]([O-])C(c1ccccc1)c1ccccc1 [R-(−)-modafinil Form III, R-(−)-2-[(Diphenylmethyl)sulfinyl]acetamide] | Form conversion was not observed
NC(=O)C[S@@+]([O-])C(c1ccccc1)c1ccccc1 [R-(−)-modafinil Form V, R-(−)-2-[(Diphenylmethyl)sulfinyl]acetamide] | Form conversion was not observed
